Patent publication US7101878B1 (Agouron Pharmaceuticals, Inc., priority 1998, dated 2006)
Like-named read-outs stand apart in the source and are kept apart here.

How the values were obtained:
human GnRH receptor = target: T1, human GnRH receptor (Homo sapiens, UniProt P30968); test: Radioligand binding, 125I-GnRH-A displacement, membranes of HEK 293 cells with human GnRH receptor
T1 construct: expressed in transfected cells; host or cells: HEK 293 (hGnRH-R/293, from Dr. Stuart Sealfon)
T1 sequence (P30968 1-328): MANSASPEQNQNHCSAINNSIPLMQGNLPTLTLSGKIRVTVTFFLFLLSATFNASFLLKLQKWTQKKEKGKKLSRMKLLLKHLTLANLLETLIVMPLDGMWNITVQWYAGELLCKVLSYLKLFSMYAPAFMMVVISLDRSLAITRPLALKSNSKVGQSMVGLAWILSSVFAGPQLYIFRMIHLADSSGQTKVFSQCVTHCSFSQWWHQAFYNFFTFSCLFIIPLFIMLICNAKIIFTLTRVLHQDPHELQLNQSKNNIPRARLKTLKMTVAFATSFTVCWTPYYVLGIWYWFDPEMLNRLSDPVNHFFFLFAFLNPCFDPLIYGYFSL
How it was run: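 After filtration and PBS washes, bound radioactivity was counted by scintillation and IC50 derived. Identical conditions applied for non-human receptors.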

bovine GnRH receptor = target: T2, bovine GnRH receptor (Bos taurus, UniProt P32236); test: Radioligand binding, 125I-GnRH-A, bovine pituitary membranes
T2 construct: membranes were prepared from bovine pituitary; from tissue; host or cells: bovine pituitary
T2 sequence (P32236 1-328): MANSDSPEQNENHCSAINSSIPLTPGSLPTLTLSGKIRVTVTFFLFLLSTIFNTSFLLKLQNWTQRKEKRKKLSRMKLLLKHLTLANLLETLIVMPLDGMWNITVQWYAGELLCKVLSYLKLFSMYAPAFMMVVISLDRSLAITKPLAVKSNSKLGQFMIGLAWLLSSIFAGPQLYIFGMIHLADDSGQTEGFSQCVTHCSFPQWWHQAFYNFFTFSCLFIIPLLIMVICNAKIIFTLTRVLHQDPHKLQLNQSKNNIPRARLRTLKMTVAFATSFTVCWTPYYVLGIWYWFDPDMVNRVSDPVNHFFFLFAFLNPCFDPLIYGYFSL
Protocol: All compounds were diluted in 1% DMSO (final assay concentration) in binding assay buffer. […] Reactions were terminated by rapid filtration onto 96-well Packard GF/C filters soaked in 0.1% polyethyleneimine. Filters were washed three times with PBS buffer, dried and counted on a Packard Topcount by liquid scintillation counting.
Assay conditions were identical for assessing compound activities at other species. […] IC50 values for control peptides and test compounds were calculated utilizing GraphPad Prism™ software.
The reaction mixture was vortexed and incubated for 1 min at room temperature. After one min, the mixture was vortexed and allowed to incubate for an additional minute. 2 ml of 0.5 M acetic acid/1% BSA was added to the reaction tube and the mixture was added to a C18 Sep-Pak cartridge. The cartridge was washed with subsequent washes of 5 ml H2O and 5 ml 0.5M acetic acid and then eluted with 5×1 ml of 60% CH3CN/40% 0.5M acetic acid. The eluate was diluted with 3× volume of HPLC buffer A (0.1% TFA in H2O) and loaded onto a C18 column. […] The radioactive fractions (750 ed/fraction) are collected into clean polypropylene tubes containing 100 μl of 10% BSA. Fractions were assessed for biological activity by radioligand binding.

mouse GnRH receptor = target: T3, mouse GnRH receptor (Mus musculus, UniProt Q01776); test: Radioligand binding, 125I-GnRH-A, 293 cells expressing mouse GnRH receptors
T3 construct: expressed in transfected cells; host or cells: 293 cells
T3 sequence (Q01776 1-327): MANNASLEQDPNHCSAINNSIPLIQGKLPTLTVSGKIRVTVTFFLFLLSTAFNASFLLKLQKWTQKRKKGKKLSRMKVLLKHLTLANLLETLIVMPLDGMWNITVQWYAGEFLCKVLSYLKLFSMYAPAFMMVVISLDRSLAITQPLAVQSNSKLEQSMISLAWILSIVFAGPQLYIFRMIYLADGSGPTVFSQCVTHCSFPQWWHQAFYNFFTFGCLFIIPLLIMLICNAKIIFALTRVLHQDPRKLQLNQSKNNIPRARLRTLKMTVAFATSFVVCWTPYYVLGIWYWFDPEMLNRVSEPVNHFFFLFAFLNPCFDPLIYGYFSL
How it was run: (§1)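 Bound label captured on 0.1% polyethyleneimine-treated GF/C filters, washed three times with PBS, counted. IC50 derived; identical set-up for every species.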

[1] = Pharmacokinetic studies / bioavailability in rats; type: in vivo, rat; conditions: male, rat, plasma, 10 mg/kg, rat male; for half-life: iv
rat GnRH receptor = target: T4, rat GnRH receptor (Rattus norvegicus, UniProt P30969); test: Radioligand binding, 125I-GnRH-A, rat pituitary membranes; design: membranes were prepared from rat pituitary; from tissue; host or cells: rat pituitary
T4 sequence (P30969 1-327): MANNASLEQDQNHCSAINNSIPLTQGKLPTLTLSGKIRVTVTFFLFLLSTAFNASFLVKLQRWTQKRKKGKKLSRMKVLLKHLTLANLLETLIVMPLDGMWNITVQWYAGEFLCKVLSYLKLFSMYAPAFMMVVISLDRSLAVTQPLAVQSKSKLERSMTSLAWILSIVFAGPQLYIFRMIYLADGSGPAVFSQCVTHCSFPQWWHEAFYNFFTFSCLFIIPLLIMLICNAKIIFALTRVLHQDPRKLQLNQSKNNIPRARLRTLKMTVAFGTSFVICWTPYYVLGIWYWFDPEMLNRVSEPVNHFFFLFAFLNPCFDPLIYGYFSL
How it was run: as §1

[2] = Metabolism rate, pmol/min/mg at 1 μM, human; type: in vitro ADME; conditions: 1 μM compound
[3] = Metabolism rate, pmol/min/mg at 1 μM, rat male; type: in vitro ADME; conditions: 1 μM compound
[4] = means ± SE of at least three experiments performed in duplicate, read-out: Human IC50
[5] = means ± SE of at least three experiments performed in duplicate, read-out: Bovine IC50
[6] = means ± SE of at least three experiments performed in duplicate, read-out: Mouse IC50
[7] = po, p.o. 10 mg/kg, vehicle per footnote
[8] = means ± SE of at least three experiments performed in duplicate, read-out: Rat IC50
[9] = second value marked * (mostly in parentheses), asterisk not explained, read-out: hGnRH IC50, value marked *

Structure (SMILES)	IC50 (human GnRH receptor; [4]) [µM]	IC50 (human GnRH receptor; read-out: hGnRH IC50) [µM]	IC50 (bovine GnRH receptor; [5]) [µM]	IC50 (mouse GnRH receptor; [6]) [µM]	IC50 (mouse GnRH receptor; read-out: mGnRH IC50) [µM]	half-life [1] [min]	Cmax [1, 7] [nM]	Tmax [1, 7] [min]	IC50 (rat GnRH receptor; [8]) [µM]	IC50 (rat GnRH receptor; read-out: rGnRH IC50) [µM]	IC50 (bovine GnRH receptor; read-out: bGnRH IC50) [µM]	Human pmol/min/mg 1 μM [2] [pmol/min/mg]	Rat male pmol/min/mg 1 μM [3] [pmol/min/mg]	IC50 (human GnRH receptor; [9]) [µM]
Cc1ccc(CNC(=O)c2ccc(Cc3cc4c(cc3C)C(C)(C)CCC4(C)C)o2)cc1 [Compound 14]	0.08 ± 0.004	0.08	1.05 ± 0.03	0.29 ± 0.07	0.29	84	1600	60	0.06 ± 0.015	0.06	–	–	–	–
Cc1cc2c(cc1Cc1ccc(C(=O)NCC3CCC(C#N)CC3)o1)C(C)(C)CCC2(C)C (centres unmarked) [Compound 16]	0.03 ± 0.006	0.03	4.38 ± 0.51	1.29 ± 0.21	1.29	40	–	–	0.56 ± 0.05	0.56	–	–	–	–
Cc1cc2c(cc1Cc1ccc(C(=O)NCc3cccc(C)c3C)o1)C(C)(C)CCC2(C)C [Compound 17]	0.08 ± 0.02	0.08	0.67 ± 0.12	0.08 ± 0.02	0.08	132	–	–	0.03 ± 0.004	0.03	–	–	–	–
Cc1ccc(CNC(=O)c2ccc(Cc3cc4c(cc3C)C(C)(C)CCC4(C)C)o2)cc1C [Compound 18]	0.055 ± 0.011	0.055	0.46 ± 0.09	0.115 ± 0.025	0.115	55	–	–	0.04 ± 0.003	0.04	–	–	–	–
CC(=O)c1cccc(NC(=O)c2ccc(Cc3cc4c(cc3C)C(C)(C)CCC4(C)C)o2)c1 [Compound 19]	0.05 ± 0.003	0.05	–	–	0.16	43	–	–	–	0.06	0.605	–	–	–
Cc1cccc(CNC(=O)c2ccc(Cc3cc4c(cc3C)C(C)(C)CCC4(C)C)o2)c1 [Compound 41]	–	0.14	–	–	0.49	–	–	–	–	0.21	1.4	185	1606	–
COc1ccc(CNC(=O)c2ccc(Cc3cc4c(cc3C)C(C)(C)CCC4(C)C)o2)cc1 [Compound 42]	–	0.075	–	–	0.28	58	–	–	–	0.1	1.78	361	1387	0.065
Cc1cc2c(cc1Cc1ccc(C(=O)NCc3cccs3)o1)C(C)(C)CCC2(C)C [Compound 44]	–	0.39	–	–	0.61	55	–	–	–	0.51	4.44	459	1759	0.12
Cc1cc2c(cc1Cc1ccc(C(=O)NCc3ccccc3F)o1)C(C)(C)CCC2(C)C [Compound 46]	–	–	–	–	1.88	55	–	–	–	0.9	8.7	485	1781	0.33
Cc1cc2c(cc1Cc1ccc(C(=O)NCCOc3ccccc3)o1)C(C)(C)CCC2(C)C [Compound 47]	–	0.23	–	–	0.24	90	–	–	–	0.13	1.92	392	2198	0.08
Cc1cc2c(cc1Cc1ccc(C(=O)NCc3ccccc3Cl)o1)C(C)(C)CCC2(C)C [Compound 51]	–	0.15	–	–	0.4	–	–	–	–	0.12	1.93	392	1877	–
Cc1cc2c(cc1Cc1ccc(C(=O)NCc3cccc(F)c3)o1)C(C)(C)CCC2(C)C [Compound 53]	–	0.25	–	–	0.63	–	–	–	–	0.27	2.93	–	–	–
Cc1cc2c(cc1Cc1ccc(C(=O)Nc3cccc4ncccc34)o1)C(C)(C)CCC2(C)C [Compound 64]	–	0.125	–	–	0.034	–	–	–	–	0.06	0.38	–	–	–
COC(=O)c1ccc(OC)c(NC(=O)c2ccc(Cc3cc4c(cc3C)C(C)(C)CCC4(C)C)o2)c1 [Compound 72]	–	0.13	–	–	0.085	–	–	–	–	0.084	1.44	278	4226	–
CCNC(=O)[C@@H]1CCCN1C(=O)[C@H](CCCNC(=N)N)NC(=O)[C@H](CC(C)C)NC(=O)[C@@H](C)NC(=O)[C@H](Cc1ccc(O)cc1)NC(=O)[C@H](CO)NC(=O)[C@H](Cc1c[nH]c2ccccc12)NC(=O)[C@H](Cc1c[nH]cn1)NC(=O)[C@@H]1CCC(=O)N1 [GnRH-A, [des-Gly^10,D-Ala^6]GnRH ethylamide, reference compound]	0.00034 ± 6e-05	–	0.0003 ± 5e-05	0.00022 ± 3e-05	–	–	–	–	0.00049 ± 0.0001	–	–	–	–	–
